Drug metabolism, IC50 and Stability data for three molecules are collected here from ChEMBL document CHEMBL2390896, “Synthesis, enzymatic stability and in vitro cytostatic effect of Daunorubicin-GnRH-III derivative dimers” (Bioorg Med Chem Lett, 2013).

Series [1] in a line: Prodrug conversion in rat liver lysosomal homogenate assessed as H-Lys(Dau=Aoa-Cys)-OH formation at 0.1 ug/uL after 24 hrs by LC-MS analysis. The format is ADME, tissue-based.
Another series deals with MCF7. Briefly: Cytostatic activity against human MCF7 cells after 72 hrs by MTT assay. The note with it: MCF7, 72 h. The format is functional, cell-based.
Series [2] is described as follows: Proteolytic stability in 0.1 % formic acid at pH 1.8 in presence of pepsin after 24 hrs by mass spectrometry. The format is ADME. The note with it: isolated protein, pH 1.8, 24 h.
For a further series, the system named is Serum. Briefly: Metabolic stability in human serum at 10 uM after 24 hrs by LC-MS analysis. It counts as ADME, cell-free.
Series [3] in a line: Prodrug conversion in rat liver lysosomal homogenate assessed as free daunorubicin at 0.1 ug/uL after 24 hrs by LC-MS analysis. It counts as ADME, tissue-based.
The nature of series [4]: Prodrug conversion in rat liver lysosomal homogenate assessed as {[H-Lys(Dau=Aoa-Cys)-OH] [H-Lys(Dau=Aoa-Cys)P-OH]} formation at 0.1 ug/uL after 24 hrs by LC-MS analysis. It counts as ADME, tissue-based.
Series [5] is described as follows: Proteolytic stability in Tris-HCl/CaCl2 buffer at pH 7.8 in presence of alpha-chymotrypsin assessed as cleavage of compound at -3Trp-4Xxx- in second arm of dimer at 0.1 ug/uL after 4 hrs by mass spectrometry. It counts as ADME. The note with it: pH 7.8, 4 h.
Series [6] is described as follows: Proteolytic stability in NH4HCO3 buffer at pH 8.0 in presence of trypsin at 0.1 ug/uL after 24 hrs by mass spectrometry. It counts as ADME. The note with it: isolated protein, pH 8, 24 h.
Series [7] can be described thus: Proteolytic stability in Tris-HCl/CaCl2 buffer at pH 7.8 in presence of alpha-chymotrypsin assessed as compound degradation at 0.1 ug/uL after 6 hrs by mass spectrometry. It counts as ADME. To be noted: pH 7.8, 6 h.
Series [8] in a line: Proteolytic stability in Tris-HCl/CaCl2 buffer at pH 7.8 in presence of alpha-chymotrypsin assessed as intact parent compound at 0.1 ug/uL measured after 24 hrs by mass spectrometry. It counts as ADME. To be noted: pH 7.8, 24 h.
Series [9] is described as follows: Proteolytic stability in Tris-HCl/CaCl2 buffer at pH 7.8 in presence of alpha-chymotrypsin assessed as cleavage of compound at -3Trp-4Xxx- in one arm of dimer at 0.1 ug/uL measured after 1 hr by mass spectrometry. The format is ADME. The note with it: pH 7.8, 1 h.
A short description of series [10]: Proteolytic stability in Tris-HCl/CaCl2 buffer at pH 7.8 in presence of alpha-chymotrypsin assessed as cleavage of compound at -3Trp-4Xxx- in second arm of dimer at 0.1 ug/uL after 24 hrs by mass spectrometry. It counts as ADME. The note with it: pH 7.8, 24 h.
Series [11] is described as follows: Chemical stability of the compound in aqueous solution after 24 hrs by LC-MS analysis. The note with it: buffer. It counts as physicochemical.
Series [12] in a line: Drug metabolism in rat liver lysosomal homogenate assessed as [H-Lys(Dau=Aoa-Cys)-OH]2 formation at 0.1 ug/uL after 24 hrs by LC-MS analysis. It counts as ADME, tissue-based. The note with it: tissue homogenate.

For `COc1cccc2c1C(=O)c1c(O)c3c(c(O)c1C2=O)C[C@@](O)(/C(C)=N/OCC(=O)NCCCC[C@H](NC(=O)[C@H](Cc1c[nH]c2ccccc12)NC(=O)[C@H](CC(=O)O)NC(=O)[C@H](Cc1cnc[nH]1)NC(=O)[C@H](CO)N(C)C(=O)[C@H](Cc1c[nH]c2ccccc12)NC(=O)[C@H](Cc1cnc[nH]1)NC(=O)[C@@H]1CCC(=O)N1)C(=O)N1CCC[C@H]1C(=O)NCC(N)=O)C[C@@H]3O[C@H]1C[C@H](N)[C@H](O)[C@H](C)O1`, in [1], the Drug metabolism entry is on record as “Active”. This molecule also came in with an IC50 in the series with MCF7 of 10.6 µM.
Consider `COc1cccc2c1C(=O)c1c(O)c3c(c(O)c1C2=O)C[C@@](O)(/C(C)=N/OCC(=O)N[C@@H](CSSC[C@H](NC(=O)CO/N=C(\C)[C@]1(O)Cc2c(O)c4c(c(O)c2[C@@H](O[C@H]2C[C@H](N)[C@H](O)[C@H](C)O2)C1)C(=O)c1c(OC)cccc1C4=O)C(=O)NCCCC[C@H](NC(=O)[C@H](Cc1c[nH]c2ccccc12)NC(=O)[C@H](CC(=O)O)NC(=O)[C@H](Cc1cnc[nH]1)NC(=O)[C@H](CO)NC(=O)[C@H](Cc1c[nH]c2ccccc12)NC(=O)[C@H](Cc1cnc[nH]1)NC(=O)[C@@H]1CCC(=O)N1)C(=O)N1CCC[C@H]1C(=O)NCC(N)=O)C(=O)NCCCC[C@H](NC(=O)[C@H](Cc1c[nH]c2ccccc12)NC(=O)[C@H](CC(=O)O)NC(=O)[C@H](Cc1cnc[nH]1)NC(=O)[C@H](CO)NC(=O)[C@H](Cc1c[nH]c2ccccc12)NC(=O)[C@H](Cc1cnc[nH]1)NC(=O)[C@@H]1CCC(=O)N1)C(=O)N1CCC[C@H]1C(=O)NCC(N)=O)C[C@@H]3O[C@H]1C[C@H](N)[C@H](O)[C@H](C)O1`, for which the Stability entry in series [2] is reported as “Stable”; in the series with Serum, “Stable”; in [5], “Stable”; in [6], “Stable”; in series [7], “Unstable”; in series [8], “Stable”. Also, the Stability result in series [9] is listed as “Unstable”; in series [10], “Stable”; in [11], “Stable”. The Drug metabolism result in [3] is listed as “Not Active”; in series [4], “Active”. In addition, the IC50 in the series on MCF7 came to 4.1 µM.
Turning to `COc1cccc2c1C(=O)c1c(O)c3c(c(O)c1C2=O)C[C@@](O)(/C(C)=N/OCC(=O)N[C@@H](CSSC[C@H](NC(=O)CO/N=C(\C)[C@]1(O)Cc2c(O)c4c(c(O)c2[C@@H](O[C@H]2C[C@H](N)[C@H](O)[C@H](C)O2)C1)C(=O)c1c(OC)cccc1C4=O)C(=O)NCCCC[C@H](NC(=O)[C@H](Cc1c[nH]c2ccccc12)NC(=O)[C@H](CC(=O)O)NC(=O)[C@H](Cc1cnc[nH]1)NC(=O)[C@H](CO)N(C)C(=O)[C@H](Cc1c[nH]c2ccccc12)NC(=O)[C@H](Cc1cnc[nH]1)NC(=O)[C@@H]1CCC(=O)N1)C(=O)N1CCC[C@H]1C(=O)NCC(N)=O)C(=O)NCCCC[C@H](NC(=O)[C@H](Cc1c[nH]c2ccccc12)NC(=O)[C@H](CC(=O)O)NC(=O)[C@H](Cc1cnc[nH]1)NC(=O)[C@H](CO)N(C)C(=O)[C@H](Cc1c[nH]c2ccccc12)NC(=O)[C@H](Cc1cnc[nH]1)NC(=O)[C@@H]1CCC(=O)N1)C(=O)N1CCC[C@H]1C(=O)NCC(N)=O)C[C@@H]3O[C@H]1C[C@H](N)[C@H](O)[C@H](C)O1`, the Stability entry in [2] is given as “Stable”; with Serum, “Stable”; in series [5] it was “Stable”; in series [6], “Stable”; in [7], “Unstable”; in series [8], “Stable”. The figures for the Stability result in [9], in series [10] and in series [11] were “Unstable”, “Stable” and “Stable”, respectively. Moreover, the Drug metabolism result in series [12] is “Active”. The molecule also returned an IC50 with MCF7 of 6.2 µM.
